Assay: Evaluation of solubility in methyl ethyl ketone
Details: 1 g compound in 100 g methyl ethyl ketone, shaken 1 hour, left 24 hours at room temperature, visual
Protocol: Each compound (1 g) listed in Table 1 and methyl ethyl ketone (MEK, 100 g) were added to a 250 ml bottle and covered with a cap to inhibit the volatilization of the solvent.

Solubility	SMILES
∘	CCOCCOCCOCC(=O)[O-].[Li+] [Formula A]
∘	CCOCCOCCOCC(=O)[O-].[Na+] [Formula B]
∘	CCCCOCCOCC(=O)[O-].[Na+] [Formula C]

Reference: patent publication US20170107407A1, “ADHESIVE COMPOSITION AND POLARIZING PLATE COMPRISING SAME” (DONGWOO FINE-CHEM CO., LTD., priority 2014, published 2017)
